In article PMC11676098, “New Benzofuran–Pyrazole-Based Compounds as Promising Antimicrobial Agents: Design, Synthesis, DNA Gyrase B Inhibition, and In Silico Studies” (Pharmaceuticals, 2024):

Target: T1, E. coli DNA gyrase B (Escherichia coli, UniProt P0AES6)
T1 construct: gene gyrB
Assay: in vitro E. coli DNA gyrase enzyme inhibition assay (manufacturer's protocol)
Type: biochemical

Compound `N#Cc1c(-c2cn(-c3ccccc3)nc2-c2cc3ccccc3o2)c(C#N)c(=O)n2c1NCCN2` [compound 9, 8-(3-(Benzofuran-2-yl)-1-phenyl-1H-pyrazol-4-yl)-6-oxo-1,3,4,6-tetrahydro-2H-pyrido[1,2-b][1,2,4]triazine-7,9-dicarbonitrile] has an IC50 of 9.8 ± 0.21 µM.
With `CC(=O)n1c(C)nc2c(C#N)c(-c3cn(-c4ccccc4)nc3-c3cc4ccccc4o3)c(C#N)c(=O)n21` [compound 10, 3-Acetyl-7-(3-(benzofuran-2-yl)-1-phenyl-1H-pyrazol-4-yl)-3,5-dihydro-2-methyl-5-oxo-[1,2,4]triazolo[1,5-a]pyridine-6,8-dicarbonitrile] the IC50 was 32.2 ± 0.1 µM.
